Test results from patent US20210087195A1, “NEW CRYSTAL FORM OF ACALBRUTINIB, PREPARATION METHOD THEREFOR AND USE THEREOF” (Crystal Pharmaceutical (Suzhou) Co., Ltd., priority 2018, published 2021).
≈ marks a conversion by molar mass, not a printed value. Entries after “also recorded” stand apart in the source; their conditions may differ. Read-outs that look alike come from different tables or passages of the source. Blank lines part the entries; values can stand above or below the compound they belong to.

Tests used:
Type in all cases: physicochemical
[1] = Solubility in organic solvents (incremental solvent addition)
Experimental: A certain amount of Form K1 or Form I of WO2017002095A1 was added into a glass vial. Organic solvent was added into the glass vial in increments of 100 μL. Solid was quickly dispersed in solvent through oscillation or sonication, and the process was monitored to see whether the solid was completely dissolved. No more solvent was added when solids were completely dissolved, or a total volume of solvent reached 1.5 mL. According to mass of sample (m) and volume of solvent added, solubility (S) of different crystalline forms in organic solvent was calculated.

[2] = Adhesiveness (amount sticking to the punch); conditions: φ8 mm round tooling, 10 kN, held 30 s, compression repeated twice
Experimental: Approximately 30 mg of Form K1 or Form I of WO2017002095A1 was weighed and then added into the dies of φ8 mm round tooling, compressed at 10 kN and held for 30 s. The amount of material sticking to the punch was weighed. The compression was repeated twice and the cumulative amount and average amount of solids sticking to the punch during the compression were recorded.

[3] = Slurry competition experiments between Form K1 and Form I in water; conditions: 5° C. and room temperature
Experimental: Approximately 30 mg of Form K1 and Form I of WO2017002095A1 were weighed and suspended into water at 5° C. and room temperature, to evaluate the stability of Form K1 and Form I of WO2017002095A1.

[4] = Compressibility (tensile strength of compressed powder); conditions: φ6 mm round tooling, compressed at 10 kN, T=2H/πDL
Experimental: Approximately 80 mg of Form K1 or Form I of WO2017002095A1 was added into the dies of φ6 mm round tooling, compressed at 10 kN manually, and then stored in a desiccator for 24 hours until complete elastic recovery. Radial crushing force (hardness, H) was tested with an intelligent tablet hardness tester. Diameter (D) and thickness (L) were tested with a caliper. Tensile strength of the powder with different hardness was calculated with the following formula: T=2H/πDL. Under a certain force, the greater the tensile strength, the better the compressibility.

[5] = Physical stability of crystalline form in water (suspension, magnetic stirring or shaking, XRPD); conditions: for Physical stability in water (crystalline form change): magnetic stirring and shaking at room temperature and 5° C., up to 7 days
Experimental: The following experiments were conducted to compare physical stability of Form K1 of the present disclosure and Form I of WO2017002095A1 in water. Approximately 10 mg of Form K1 and Form I solids were added into 1.0 mL of pure water separately to form suspensions. The suspensions were dispersed by magnetic stirring and shaking at room temperature and 5° C. to evaluate the physical stability of Form K1 and Form I of WO2017002095A1 in water.

[6] = Solubility in buffers of pH 7.0, 7.4 and 8.7 (HPLC); conditions: for solubility at 2 h: phosphate buffer, thermodynamic from solid, read-out: Solubility after equilibration for 2 hours
Experimental: A sufficient amount of Form K1 or Form I of WO2017002095A1 was suspended in buffers of pH 7.0, 7.4 and 8.7. After being stirred and equilibrated for 2 hours, the suspension was centrifuged to obtain supernatant. Concentration (mg/mL) of the supernatant was analyzed by HPLC.

[7] = Stability of drug substance at long-term and accelerated conditions (XRPD); conditions: for Solid form after storage: one month
Experimental: Four samples, 10 mg each of Form K1 of the present disclosure was stored in HPLC glass vials. The HPLC glass vials were capped in sealed conditions, or covered with Parafilm with 3-5 pinholes in open conditions. After one month, solid forms were checked by XRPD.

[8] = Form change during capsule formulation process (XRPD); conditions: before and after capsule preparation
Experimental: Form K1 capsules were prepared according to the formulation listed in Table 11 and the preparation process described in Table 12. XRPD was performed to test the form change before and after capsule preparation.

[9] = Physical stability under manual grinding (XRPD); conditions: ground manually in a mortar for 5 minutes
Experimental: Form K1 was ground manually in a mortar for 5 minutes.

[10] = listed as Form I of WO2017002095A1

Solubility ([1]; 1,4-Dioxane): S < 13.1 mg/mL | Solubility ([1]; 2-methyltetrahydrofuran): S < 8.9 mg/mL | Solubility ([1]; Acetone): S < 6.5 mg/mL | Solubility ([1]; Acetonitrile): S < 7.8 mg/mL | Solubility ([1]; Ethanol): S < 6.4 mg/mL | Solubility ([1]; Ethyl acetate): S < 7.9 mg/mL | Solubility ([1]; Isopropanol): S < 6.5 mg/mL | Solubility ([1]; Methanol): S < 27.0 mg/mL | Solubility ([1]; Methyl ethyl ketone): S < 7.6 mg/mL | Solubility ([1]; Methyl isobutyl ketone): S < 7.7 mg/mL | Solubility ([1]; Tetrahydrofuran): S < 16.1 mg/mL | Solubility ([1]; n-Butanol): S < 8.7 mg/mL | Solubility ([1]; n-Propanol): S < 7.5 mg/mL | Average amount sticking to the punch [2, 10]: 45 µg | Cumulative amount sticking to the punch [2, 10]: 90 µg | Form conversion in slurry competition [3]: convert into Form K1 | Tensile strength [4, 10]: Unable to be compressed into a tablet | Solubility after equilibration for 2 hours ([6]; pH = 7.0 phosphate aqueous solution): 64 µg/mL | Solubility after equilibration for 2 hours ([6]; pH = 7.4 phosphate aqueous solution): 55 µg/mL | Solubility after equilibration for 2 hours ([6]; pH = 8.7 phosphate aqueous solution): 56 µg/mL
SMILES: CC#CC(=O)N1CCC[C@H]1c1nc(-c2ccc(C(=O)Nc3ccccn3)cc2)c2c(N)nccn12 [Form I, (S)-4-(8-amino-3-(1-(but-2-ynoyl)pyrrolidin-2-yl)imidazo[1,5-a]pyrazin-1-yl)-N-(pyridin-2-yl)benzamide, reference compound]
Physical stability in water (crystalline form change) [5]: crystallinity decrease and almost converts into amorphous | Solid form changes in the suspension ([5]; water, magnetic stirring, room temperature, 4 hours): crystallinity decrease and almost converts into amorphous

Stability of drug substance (time kept stable) ([7]; 25° C./60% RH and 40° C./75% RH, sealed and open): stable for at least one month | Solid form after storage ([7]; 25° C./60% RH, open): Form K1 | Solid form after storage ([7]; 25° C./60% RH, sealed): Form K1 | Solid form after storage ([7]; 40° C./75% RH, open): Form K1 | Solid form after storage ([7]; 40° C./75% RH, sealed): Form K1 | Form change during capsule formulation process [8]: doesn't change | Solubility ([1]; 1,4-Dioxane): S > 102.0 mg/mL | Solubility ([1]; 2-methyltetrahydrofuran, organic solvent or mixture, thermodynamic from solid, 2-methyltetrahydrofuran, read-out: Solubility): > 17600 µg/mL | Solubility ([1]; Acetone): S > 137.0 mg/mL | Solubility ([1]; Acetonitrile): S > 36.3 mg/mL | Solubility ([1]; Ethanol): S > 120.0 mg/mL | Solubility ([1]; Isopropanol): S > 48.0 mg/mL | Solubility ([1]; Methanol): S > 89.0 mg/mL | Solubility ([1]; Methyl ethyl ketone): S > 114.0 mg/mL | Solubility ([1]; Tetrahydrofuran): S > 142.0 mg/mL | Solubility ([1]; ethyl acetate, organic solvent or mixture, thermodynamic from solid, Ethyl acetate, read-out: Solubility): > 13200 µg/mL | Solubility ([1]; methyl isobutyl ketone, organic solvent or mixture, thermodynamic from solid, Methyl isobutyl ketone, read-out: Solubility): > 10000 µg/mL | Solubility ([1]; n-Butanol): S > 30.3 mg/mL | Solubility ([1]; n-Propanol): S > 58.0 mg/mL | Average amount sticking to the punch [2]: 30 µg | Cumulative amount sticking to the punch [2]: 60 µg | Tensile strength [4]: 1.31 MPa | solubility at 2 h ([6]; pH 7, aqueous buffer, pH = 7.0 phosphate aqueous solution): 79 µg/mL (≈ 170 µM) | solubility at 2 h ([6]; pH 7.4, aqueous buffer, pH = 7.4 phosphate aqueous solution): 69 µg/mL (≈ 148 µM) | solubility at 2 h ([6]; pH 8.7, aqueous buffer, pH = 8.7 phosphate aqueous solution): 66 µg/mL (≈ 142 µM)
SMILES: CC#CC(=O)N1CCC[C@H]1c1nc(-c2ccc(C(=O)Nc3ccccn3)cc2)c2c(N)nccn12 [Form K1, (S)-4-(8-amino-3-(1-(but-2-ynoyl)pyrrolidin-2-yl)imidazo[1,5-a]pyrazin-1-yl)-N-(pyridin-2-yl)benzamide]
Physical stability under grinding (form change) [9]: no obvious form change or crystallinity decrease | Physical stability in water (crystalline form change) [5]: no crystalline form change; also recorded: doesn't change
